{"source": "patent US6602664B2", "about": "(priority 1998, dated 2003)", "test_system": "mutant strains of HIV-1", "assay": "microbe, parasite or virus in culture", "type": "cell-based", "conditions": "for EC50 / Slope / pEC50: human PBM cells; for pEC50: Human immunodeficiency virus 1, PBMC", "method": "Cells and viruses. […] Antimicrobial Agents Chemother 1992;36(11): 2423-2431.\nCell pellets were washed, centrifuged, lysed and the proviral DNA extracted as previously described. Cytotoxicity of the compounds was determined using the Promega Cell Titer 96 dye uptake assay (Madison, Wis.) in 1-2 day PHA-stimulated PBM cells after 5 days in culture. The median effective concentration (EC50) and inhibitory concentration (IC50) were derived from the computer-generated median effect plot of the dose-effect data, as described previously. […]\nThe mutant viruses tested are as follows: xxBRU Pitt (wild type HIV-1; the backbone used to prepare the other site directed mutagens); M184V (methionine to valine change at codon 184); K65R (lysine to arginine change at codon 65); T215Y (threonine to tyrosine change at codon 215); M184V/T215Y (virus with both mutations); 215/41 (virus with two mutations (threonine to tyrosine change at codon 215) and M4 1L (methionine to leucine change at codon 41)); 4X AZT (virus with four mutations associated with AZT therapy); D67N (aspartic acid to asparagine change at codon 67); K70R lysine to arginine change at codon 70); T215Y (defined as above); K219Q (lysine to glutamine change at codon 219); 964 pre (virus from a patient before they were on AZT therapy, and thus AZT sensitive); and 964 post (virus taken from the same patient after they were on AZT therapy, and thus is AZT resistant).", "note": "pEC50: −log10 of the molar value.", "data": [{"smiles": "[N-]=[N+]=N[C@H]1C[C@H](n2ccc(=O)[nH]c2=O)O[C@@H]1CO", "note": "[CS-87, 3′-Azido-2′,3′-dideoxyuridine]", "values": [{"measurement": "FI^50 (fold increase EC50)", "result": 87}, {"measurement": "EC50", "setting": "4X AZT Pitt.", "result": 17000, "unit": "nM"}, {"measurement": "Slope", "setting": "4X AZT Pitt.", "result": 0.54}, {"measurement": "EC50", "setting": "215/4I Pitt.", "result": 19100, "unit": "nM"}, {"measurement": "Slope", "setting": "215/4I Pitt.", "result": 0.95}, {"measurement": "GFI^90 (fold increase EC90)", "setting": "AZT-Post (964 post)", "result": 14}, {"measurement": "EC50", "setting": "AZT-Post (964 post)", "result": 63000, "unit": "nM"}, {"measurement": "Slope", "setting": "AZT-Post (964 post)", "result": 1.64}, {"measurement": "EC50", "setting": "AZT-Sen. (964 pre)", "result": 11100, "unit": "nM"}, {"measurement": "Slope", "setting": "AZT-Sen. (964 pre)", "result": "0.65 ± 0.08"}, {"measurement": "sensitivity of AZT-exposed virus", "setting": "AZT-exposed virus", "result": "deceased sensitivity"}, {"measurement": "EC50", "setting": "HIV-1/LAI", "result": 4700, "unit": "nM"}, {"measurement": "Slope", "setting": "HIV-1/LAI", "result": 0.70}, {"measurement": "pEC50", "setting": "4X AZT Pitt.", "result": 6.52}, {"measurement": "pEC50", "setting": "215/4I Pitt.", "result": 5.68}, {"measurement": "pEC50", "setting": "AZT-Post (964 post)", "result": 4.78}, {"measurement": "pEC50", "setting": "AZT-Sen. (964 pre)", "result": 6.40}, {"measurement": "pEC50", "setting": "HIV-1/LAI", "result": 6.70}, {"measurement": "pEC50", "setting": "K65R Pitt.", "result": 5.96}, {"measurement": "pEC50", "setting": "L74V Pitt.", "result": 6.22}, {"measurement": "pEC50", "setting": "M184V Pitt.", "result": 6.22}, {"measurement": "pEC50", "setting": "M184V/T215Y Pitt.", "result": 5.96}, {"measurement": "pEC50", "setting": "T215Y Pitt.", "result": 6.52}, {"measurement": "pEC50", "setting": "xxBRU Pitt. (wild type)", "result": 5.96}, {"measurement": "EC50", "setting": "K65R Pitt.", "result": 12000, "unit": "nM"}, {"measurement": "Slope", "setting": "K65R Pitt.", "result": "0.92 ± 0.07"}, {"measurement": "EC50", "setting": "L74V Pitt.", "result": 3800, "unit": "nM"}, {"measurement": "Slope", "setting": "L74V Pitt.", "result": "1.18 ± 0.10"}, {"measurement": "EC50", "setting": "M184V Pitt.", "result": 2400, "unit": "nM"}, {"measurement": "Slope", "setting": "M184V Pitt.", "result": 1.55}, {"measurement": "EC50", "setting": "M184V/T215Y Pitt.", "result": 5900, "unit": "nM"}, {"measurement": "Slope", "setting": "M184V/T215Y Pitt.", "result": 1.40}, {"measurement": "EC50", "setting": "T215Y Pitt.", "result": 2700, "unit": "nM"}, {"measurement": "Slope", "setting": "T215Y Pitt.", "result": "1.00 ± 0.11"}, {"measurement": "sensitivity of site directed mutant viruses", "setting": "mutations at other than the 70 codon in the RT region", "result": "remain sensitive"}, {"measurement": "EC50", "setting": "xxBRU Pitt. (wild type)", "result": 7300, "unit": "nM"}, {"measurement": "Slope", "setting": "xxBRU Pitt. (wild type)", "result": 1.16}]}]}
